Test results taken from patent US5292901A, “Benzodioxole derivatives” (Eisai Co., Ltd., priority 1987, dated 1994).

Legend:
[1] = test system: liver injury induced by D-galactosamine; experiment: Experimental Example 2b: inhibition of liver injury in rats (group I-b), method given as that of Experimental Example 1b; type: in vivo, male Fischer (F344) rats; settings: Rattus norvegicus, 48 h; Table 2b; compound 100 mg/kg oral in 0.5% methylcellulose; read-out: Inhibition ratio (%) GPT
Description: The test was conducted in the same manner as shown in Experimental Example 1b except that the test compound was orally administered to the rats in a dose of 100 mg/kg in 0.5% methylcellulose solution.

[2] = test system: liver injury induced by D-galactosamine; experiment: Experimental Example 1b: effect on liver injury induced by D-galactosamine in rats (group I-b); type: in vivo, male Fischer (F344) rats; settings: Rattus norvegicus, po, 48 h, Table 1b, D-galactosamine 400 mg/kg, compound 100 mg/kg in 0.5% methylcellulose
[3] = Study of plants used as folk medicines for liver trouble remedies; settings: in words
[4] = read-out: Inhibition ratio (%) GPT
[5] = read-out: Inhibition ratio (%) HPT

## OCCCSCCc1ccc2c(c1)OCO2 [Compound 4]
[1]
  inhibition in vivo at 100 mg/kg: 93%
[2]; [4]
  inhibition in vivo at 100 mg/kg: 98%
[2]; [5]
  inhibition in vivo at 100 mg/kg: 98%

## C[S+]([O-])CCc1ccc2c(c1)OCO2 (centres unmarked) [Compound 26]
[1]
  inhibition in vivo at 100 mg/kg: 97%
[2]; [4]
  inhibition in vivo at 100 mg/kg: 100%
[2]; [5]
  inhibition in vivo at 100 mg/kg: 100%

## OC1OCC(Cc2ccc3c(c2)OCO3)C1Cc1ccc2c(c1)OCO2 (centres unmarked) [cubebin]
[3]
  effect as liver trouble remedy: effective as liver trouble remedies

## O=C(O)CCCCSCCc1ccc2c(c1)OCO2 [Compound 11]
[1]
  inhibition in vivo at 100 mg/kg: 90%
[2]; [4]
  inhibition in vivo at 100 mg/kg: 96%
[2]; [5]
  inhibition in vivo at 100 mg/kg: 98%

## OCCSSSCc1ccccc1 [2-[(phenylmethyl)trithio]ethanol]
[3]
  effect as liver trouble remedy: effective as liver trouble remedies

## CCOC(=O)CSCCc1ccc2c(c1)OCO2 [Compound 25]
[1]
  inhibition in vivo at 100 mg/kg: 21%
[2]; [4]
  inhibition in vivo at 100 mg/kg: 34%
[2]; [5]
  inhibition in vivo at 100 mg/kg: 61%

## CS(=O)(=O)CCc1ccc2c(c1)OCO2 [Compound 28]
[1]
  inhibition in vivo at 100 mg/kg: 97%
[2]; [4]
  inhibition in vivo at 100 mg/kg: 95%
[2]; [5]
  inhibition in vivo at 100 mg/kg: 98%

## O=C(O)CCCSCCc1ccc2c(c1)OCO2 [Compound 10]
[1]
  inhibition in vivo at 100 mg/kg: 43%
[2]; [4]
  inhibition in vivo at 100 mg/kg: 89%
[2]; [5]
  inhibition in vivo at 100 mg/kg: 99%

## O=C(O)CCSCCc1ccc2c(c1)OCO2 [Compound 9]
[1]
  inhibition in vivo at 100 mg/kg: 98%
[2]; [4]
  inhibition in vivo at 100 mg/kg: 100%
[2]; [5]
  inhibition in vivo at 100 mg/kg: 99%
